# What was measured:
# BTK-C481S = biological target: T1, BTK-C481S (Homo sapiens, UniProt Q06187, C481S); assay: HotSpot kinase enzymatic assay, mutant BTK; assay type: biochemical; details: vs negative control (DMSO), mean of two separate experiments
# T1 construct: purchased Reaction Biology Corporation
# Source text: To confirm the role of the electrophilic warhead groups, the acryloyl group of compound 8 was replaced with methylacryloyl (11) and propionyl (12) groups, which are less electrophilic or lack an electrophilic feature. […] The significant difference in the inhibitory activity of compounds 8 and 12 could explain the critical role of the acryloyl moiety in potentiating the BTK inhibitory activity of compound 8. […] It was also confirmed by comparison of the inhibitory activity of the representative compounds (8–10) with electrophilic warheads against wild-type BTK (BTK-wt) and mutant BTK (BTK-C481S).
# Kinase enzymatic assays for BTK, BMX, TXK, TEC, ITK, EGFR, ERBB2, ERBB4, and JAK3 were performed at Reaction Biology Corporation (www.reactionbiology.com, Malvern, PA, USA) using the HotSpot assay platform. Briefly, specific kinase/substrate pairs and the required cofactors were prepared in a reaction buffer comprising 20 mM HEPES (pH 7.5), 10 mM MgCl2, 1 mM EGTA, 0.02% Brij35, 0.02 mg/mL BSA, 0.1 mM Na3VO4, 2 mM DTT, and 1% DMSO. The compounds were added to the reaction mixture and allowed to incubate. Approximately 20 min later, a mixture of ATP (Sigma-Aldrich, St. Louis, MO, USA) and ^33P ATP (PerkinElmer, Waltham, MA, USA) was added to the reaction mixture at a final concentration of 10 μM. The reactions were performed at room temperature for 120 min; subsequently, the reactions were spotted onto P81 ion exchange filter papers (Whatman Inc., Maidstone, UK). Any unbound phosphate was removed by thoroughly washing the filter papers with 0.75% phosphoric acid. […] GraphPad Prism software was used to obtain the IC50 values and perform curve fitting.
# CYP2C19 = biological target: T2, CYP2C19 (Homo sapiens, UniProt P33261); assay: P450-Glo CYP inhibition assay, CYP2C19; assay type: in vitro ADME
# T2 construct: purchased Promega V9880
# Description: The potential for CYP450 inhibition (CYP1A2, 2C9, 2C19, 2D6, and […]) was assessed using Promega P450-Glo^TM CYP450 assay systems. Luciferin-ME served as the substrate for CYP1A2, and the inhibitor α-naphthoflavone was used as a positive control. Luciferin-H was used as the substrate for CYP2C9, and the inhibitor sulfaphenazole was used as a positive control. Luciferin-H EGE was selected as the substrate for CYP2C19, whereas the inhibitor amitriptyline served as a positive control. Luciferin-ME EGE was used as the substrate for CYP2D6, whereas the inhibitor quinidine served as a positive control. Luciferin-BE was used as the substrate for CYP3A4, whereas the inhibitor ketoconazole was used as a positive control. The assays were performed using the excitation and emission wavelengths recommended by the manufacturer. Briefly, a CYP enzyme and a P450-Glo™ substrate were combined in potassium phosphate (0.1 M KPO4) buffer, with or without a test compound of interest, and […]. The reaction was initiated by adding two volumes of 2 times concentrated NADPH regeneration system. […] Luminescence was subsequently measured using a Tecan Infinite M1000 PRO microplate reader (Tecan Group Ltd., Switzerland). The percent inhibition was calculated relative to that of the positive control at a fixed concentration. […]
# T2 sequence (P33261 whole entry): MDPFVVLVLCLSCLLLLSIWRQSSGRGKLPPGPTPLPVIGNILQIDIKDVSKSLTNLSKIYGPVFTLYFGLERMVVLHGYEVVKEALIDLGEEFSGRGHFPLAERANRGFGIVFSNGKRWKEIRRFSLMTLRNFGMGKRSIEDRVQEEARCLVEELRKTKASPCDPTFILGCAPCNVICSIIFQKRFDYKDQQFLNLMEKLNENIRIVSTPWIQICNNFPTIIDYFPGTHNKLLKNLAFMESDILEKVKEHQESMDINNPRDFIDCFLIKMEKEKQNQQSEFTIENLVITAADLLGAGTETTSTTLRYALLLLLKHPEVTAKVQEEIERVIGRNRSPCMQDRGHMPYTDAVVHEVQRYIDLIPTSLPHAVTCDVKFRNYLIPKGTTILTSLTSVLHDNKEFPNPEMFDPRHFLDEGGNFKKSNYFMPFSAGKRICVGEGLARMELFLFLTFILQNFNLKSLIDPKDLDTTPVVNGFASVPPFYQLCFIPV
# T1 sequence (Q06187 whole entry C481S): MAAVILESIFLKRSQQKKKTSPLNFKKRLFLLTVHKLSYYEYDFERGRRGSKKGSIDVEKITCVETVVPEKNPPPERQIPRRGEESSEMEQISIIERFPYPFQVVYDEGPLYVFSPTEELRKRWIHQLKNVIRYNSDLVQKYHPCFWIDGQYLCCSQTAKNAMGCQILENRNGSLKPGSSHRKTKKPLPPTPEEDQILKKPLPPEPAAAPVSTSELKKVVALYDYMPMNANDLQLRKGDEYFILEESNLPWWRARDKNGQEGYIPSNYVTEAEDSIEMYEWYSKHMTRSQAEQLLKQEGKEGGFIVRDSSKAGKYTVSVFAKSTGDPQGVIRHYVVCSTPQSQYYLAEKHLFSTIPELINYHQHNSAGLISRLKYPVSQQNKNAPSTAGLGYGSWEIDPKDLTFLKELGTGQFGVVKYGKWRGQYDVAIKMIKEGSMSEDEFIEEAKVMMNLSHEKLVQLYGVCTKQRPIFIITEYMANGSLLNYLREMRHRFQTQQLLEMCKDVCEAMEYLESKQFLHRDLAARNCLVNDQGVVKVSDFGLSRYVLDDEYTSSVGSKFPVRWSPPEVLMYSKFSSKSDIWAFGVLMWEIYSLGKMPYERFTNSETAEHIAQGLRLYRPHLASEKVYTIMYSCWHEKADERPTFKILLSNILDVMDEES
compound,measurement,setting,value
"C=CC(=O)O[C@H]1Cc2cc3ccc(=O)oc3cc2OC1(C)C [Compound 8, (7S)-(+)-Acrylic acid, 8,8-dimethyl-2-oxo-6,7-dihydro-2H,8H-pyrano [3,2-g]chromen-7-yl ester]",inhibition at 10 µM,BTK-C481S,9.7%
same,CYP2C19 inhibition (in words),CYP2C19,moderately inhibited
same,CYP inhibition 2C19,CYP2C19; % inhibition of human CYP isozymes at 10 μM,48.2%
